# Results from patent US20090317461A1, “ORAL COMPOSITIONS EFFECTIVE FOR THE TREATMENT OF ORAL CAVITY MALODOR ASSOCIATED WITH THE CONSUMPTION OF ODOR-CAUSING COMPOUNDS” (Wm. Wrigley Jr. Company, priority 2006, published 2009).
# Tests used:
# [1] = Menthol treatment of garlic model solution, TIC chromatogram peak area (Example 47)
# Experimental: The following example details testing of menthol for treatment of solutions with characteristic garlic aroma. Model solutions containing raw chopped garlic dispersed in water were prepared as described in Example 1. Portions of model solution (2.5 g) were treated with menthol in varying amounts (0.5 mg, 1.0 mg, and 1.5 mg).
# [2] = Sensory analysis: ten panelists rate odor intensity of raw macerated garlic solution with and without active; settings: for reduction of odor (intensity) of raw macerated garlic in water: sensory panel; for Odor Intensity (0-100), Mean: N = 10 panelists
# Experimental: Sensory analysis of the solutions utilized for analytical analyses of the raw garlic described above was conducted by ten panelists who evaluated the odor intensity of the model solution (raw macerated garlic) with and without the different levels of added active. Odor intensity was assessed utilizing a 0-100 point scale ballot with 0=no odor and 100=very strong odor.
# [3] = Headspace diallyl disulfide of garlic model solution treated with menthone, GC/MS at 5 hour intervals (Example 3); settings: menthone 1.63 mg in 2.5 g model solution; at each headspace analysis interval (5 hour intervals)
# Experimental: A model solution containing raw chopped garlic dispersed in water was prepared as described in Example 1. […] For comparison purposes, the diallyl disulfide content of the headspace of a control model solution (i.e., no menthone added) was also analyzed.
smiles,measurement,setting,value
CC1CCC(C(C)C)C(O)C1 (stereo not drawn) [menthol],reduction in odor-causing compounds,[1]; 0.5 mg in 2.5 g model solution,approximately 43%
same,reduction in odor-causing compounds,[1]; 1 mg in 2.5 g model solution,approximately 51%
same,reduction in odor-causing compounds,[1]; 1.5 mg in 2.5 g model solution,approximately 60%
CC(C)[C@@H]1CC[C@@H](C)CC1=O [menthone],reduction of odor (intensity) of raw macerated garlic in water,[2]; active concentration 0.3 mg/g,48%
same,reduction of odor (intensity) of raw macerated garlic in water,[2]; active concentration 3 mg/g,80%
same,"Odor Intensity (0-100), Mean",[2]; menthone 0.33 mg/g,5.2
same,"Odor Intensity (0-100), Mean",[2]; menthone 1 mg/g,2.7
same,"Odor Intensity (0-100), Mean",[2]; menthone 3 mg/g,2
same,less diallyl disulfide in headspace than control model solution,[3],at least 50%
